Like-named read-outs stand apart in the source and are kept apart here.

On the set-up of data set [1]: method as in PMID 11901097. The settings on record: cited from earlier work.
Details of data set [2]: method as in earlier work. The settings on record: cited from earlier work.
In the next data set the target is T1, OATP2B1 (Homo sapiens, UniProt O94956).
T1 construct: host or cells: HEK293
T1 sequence (O94956 1-709): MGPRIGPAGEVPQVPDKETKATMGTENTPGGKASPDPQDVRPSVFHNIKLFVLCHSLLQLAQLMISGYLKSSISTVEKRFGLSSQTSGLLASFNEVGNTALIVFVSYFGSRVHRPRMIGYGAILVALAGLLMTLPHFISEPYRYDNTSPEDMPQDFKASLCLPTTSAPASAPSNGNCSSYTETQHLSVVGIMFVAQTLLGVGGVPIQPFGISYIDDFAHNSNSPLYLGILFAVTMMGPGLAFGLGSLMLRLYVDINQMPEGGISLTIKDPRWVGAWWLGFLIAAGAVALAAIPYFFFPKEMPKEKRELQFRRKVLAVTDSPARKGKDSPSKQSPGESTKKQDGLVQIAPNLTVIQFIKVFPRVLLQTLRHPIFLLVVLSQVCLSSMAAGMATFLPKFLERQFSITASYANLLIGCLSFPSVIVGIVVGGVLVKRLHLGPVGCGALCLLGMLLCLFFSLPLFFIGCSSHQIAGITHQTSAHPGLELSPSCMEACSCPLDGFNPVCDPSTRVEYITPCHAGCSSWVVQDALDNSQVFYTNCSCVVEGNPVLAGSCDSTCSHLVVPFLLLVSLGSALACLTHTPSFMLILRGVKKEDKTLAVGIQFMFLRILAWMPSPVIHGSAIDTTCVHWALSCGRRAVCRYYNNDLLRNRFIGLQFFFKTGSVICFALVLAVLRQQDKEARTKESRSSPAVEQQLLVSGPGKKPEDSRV
Put plainly: Uptake of EZE-Ph into OATP2B1-transfected HEK293 cells. It counts as in vitro ADME. On the procedure: (§1) The kinetic parameters and the half inhibitory concentration (IC50) were calculated using GraphPad Prism. […] The intrinsic clearance (CLint) was calculated as CLint = Vmax/Km.

The subject of a further data set is OCT2. Put plainly: Uptake of EZE-Ph into OCT2-transfected HEK293 cells. It counts as in vitro ADME, human. Particulars: 10 μM EZE-Ph.
Another data set addresses T2, OAT3 (Homo sapiens, UniProt Q8TCC7).
T2 construct: host or cells: HEK293
T2 sequence (Q8TCC7 1-542): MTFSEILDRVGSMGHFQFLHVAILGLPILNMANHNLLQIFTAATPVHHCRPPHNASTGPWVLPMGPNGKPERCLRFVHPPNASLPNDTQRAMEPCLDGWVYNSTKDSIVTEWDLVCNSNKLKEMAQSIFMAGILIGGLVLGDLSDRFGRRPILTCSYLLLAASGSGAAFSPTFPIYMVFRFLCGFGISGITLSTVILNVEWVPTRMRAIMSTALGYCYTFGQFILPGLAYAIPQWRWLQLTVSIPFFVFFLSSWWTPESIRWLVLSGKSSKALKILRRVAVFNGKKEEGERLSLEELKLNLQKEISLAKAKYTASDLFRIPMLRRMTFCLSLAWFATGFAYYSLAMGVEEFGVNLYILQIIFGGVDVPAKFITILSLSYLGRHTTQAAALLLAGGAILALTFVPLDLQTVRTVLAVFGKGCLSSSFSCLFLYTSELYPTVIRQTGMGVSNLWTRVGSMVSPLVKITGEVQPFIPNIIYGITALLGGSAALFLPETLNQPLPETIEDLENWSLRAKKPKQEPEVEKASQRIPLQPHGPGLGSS
Put plainly: Uptake of EZE-Ph into OAT3-transfected HEK293 cells. It counts as in vitro ADME. On the procedure: as §1

The target in the next data set is T3, OATP1B3 (Homo sapiens, UniProt Q9NPD5).
T3 sequence (Q9NPD5 1-702): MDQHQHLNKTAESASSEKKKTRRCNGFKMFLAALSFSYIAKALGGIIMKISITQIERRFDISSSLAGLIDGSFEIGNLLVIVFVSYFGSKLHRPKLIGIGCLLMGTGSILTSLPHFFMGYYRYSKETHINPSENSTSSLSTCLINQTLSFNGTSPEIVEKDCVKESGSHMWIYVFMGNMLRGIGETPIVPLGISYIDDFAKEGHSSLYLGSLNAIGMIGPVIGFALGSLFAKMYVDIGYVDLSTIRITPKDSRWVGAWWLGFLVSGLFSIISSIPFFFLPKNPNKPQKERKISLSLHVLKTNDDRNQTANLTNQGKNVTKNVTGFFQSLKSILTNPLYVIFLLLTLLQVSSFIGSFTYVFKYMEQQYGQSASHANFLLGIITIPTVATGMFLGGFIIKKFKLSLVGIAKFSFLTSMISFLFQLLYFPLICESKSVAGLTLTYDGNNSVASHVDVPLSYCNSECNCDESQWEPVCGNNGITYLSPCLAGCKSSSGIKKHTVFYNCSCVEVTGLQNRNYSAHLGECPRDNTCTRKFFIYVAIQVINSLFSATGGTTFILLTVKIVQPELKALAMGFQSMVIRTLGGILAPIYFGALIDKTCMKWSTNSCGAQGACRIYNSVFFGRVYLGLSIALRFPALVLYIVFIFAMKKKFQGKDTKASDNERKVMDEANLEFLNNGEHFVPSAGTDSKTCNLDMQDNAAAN
As to the kind of experiment: Uptake of EZE-Ph into OATP1B3-transfected HEK293 cells. It counts as in vitro ADME. Further details: host or cells: HEK293. On the procedure:
as §1

Another data set concerns OAT1. As to the kind of experiment: Uptake of EZE-Ph into OAT1-transfected HEK293 cells. It counts as in vitro ADME, human. Particulars: 10 μM EZE-Ph.
The mark [3] stands for this setting: OATP1B3 HEK293, uptake time 5 min.

Protocol for OAT1: (§2) Human OATP1B1-, OATP1B3-, OATP2B1-, OAT1-, OAT3-, or OCT2-transfected HEK293 cells and vector-transfected control cells (mock) were constructed at HD Biosciences Co., Ltd. (Shanghai, China). The functions of these transporters were evaluated using relevant positive substrates and inhibitors. Estradiol-17β-glucuronide (5 μM, OATP1B1 and OATP1B3), estrone 3-sulfate sodium salt (E3S, 5 μM, OATP2B1), para-aminohippuric acid (PAH, 20 μM, OAT1), furosemide (5 μM, OAT3), and 1-methyl-4-phenyl pyridinium (MPP^+, 5 μM, OCT2) were used as substrates for the transporters. […] The cells (50,000 per well) were cultured in Dulbecco’s modified Eagle’s medium (containing 10% fetal bovine serum, 1% GlutaMAX-I, 1% penicillin G/streptomycin, and 1% nonessential amino acids) on poly-D-lysine-coated 96-well plates at 37 °C in an atmosphere of 5% CO2.
(§3) The cells were rinsed three times with HBSS (37 °C) and then equilibrated in HBSS for 10 min. […] The protein content was measured using a BCA protein assay kit. The concentrations of EZE and EZE-Ph were determined using LC-MS/MS.
(§4) The rates of substrate uptake were normalized using the protein contents of cell lysates. The net uptake via transporters was calculated by subtracting the uptake in vector-transfected HEK293 cells (or uptake into hepatocytes at 4 °C) from that in transporter-transfected HEK293 cells (or uptake into hepatocytes at 37 °C).
Protocol for OCT2: as §2, §3, §4

As for `O=C1[C@H](CC[C@H](O)c2ccc(F)cc2)[C@@H](c2ccc(O)cc2)N1c1ccc(F)cc1` [EZE, 1-(4-fluorophenyl)-3(R)-[3-(4-fluorophenyl)-3(S)-hydroxypropyl]-4(S)-(4-hydroxyphenyl)-2-azetidinone, reference compound], the “share of the EZE-related material in human plasma” value in data set [1] is listed as 10–20%. The entries for the “plasma exposure, fold higher than in healthy subjects” value in data set [2] (mild CLD patients), in data set [2] (moderate CLD patients) and in data set [2] (severe CLD patients) were 1.4 fold, 5.8 fold and 4.8 fold, respectively.

With `O=C(O)[C@H]1O[C@@H](Oc2ccc([C@@H]3[C@@H](CC[C@H](O)c4ccc(F)cc4)C(=O)N3c3ccc(F)cc3)cc2)[C@H](O)[C@@H](O)[C@@H]1O` [EZE-Ph, ezetimibe phenoxy β-D-glucuronide], the “uptake in transporter-transfected cells relative to mock-transfected cells” value is recorded as 3.7 times at OATP2B1 (10 μM EZE-Ph, OATP2B1 HEK293); “less than twice” with OCT2; 8.9 times at OAT3 (10 μM EZE-Ph, OAT3 HEK293); 56 times at OATP1B3 (10 μM EZE-Ph, OATP1B3 HEK293); “less than twice” in the data set with OAT1. Besides, the CLint turned out to be 0.56 μL/min/mg Protein at OATP2B1 (OATP2B1 HEK293, CLint = Vmax/Km); 1.84 μL/min/mg Protein on OAT3 (OAT3 HEK293, CLint = Vmax/Km); 6.73 μL/min/mg Protein on OATP1B3 (OATP1B3 HEK293, CLint = Vmax/Km). The “Kinetic Model” value at OATP2B1 (OATP2B1 HEK293, uptake time 5 min) was “Michaelis–Menten”; at OAT3 (OAT3 HEK293, uptake time 5 min) it was “Allosteric sigmoidal”; on OATP1B3 (setting [3]), “Substrate inhibition”. The “h (Hill slope)” value at OAT3 (OAT3 HEK293, allosteric sigmoidal model) is given as 1.19. Besides, the Vmax on OATP1B3 (setting [3]) was determined as 134 pmol/min/mg Protein. Further, the Km at 5 min on OATP1B3 (human, OATP1B3-transfected HEK293 cells, OATP1B3 HEK293, uptake time 5 min) is 19.9 µM.

One may read the Km as the substrate concentration at which the rate is half of its maximum.

(Values after publication PMC9785202, “Changes in Disposition of Ezetimibe and Its Active Metabolites Induced by Impaired Hepatic Function: The Influence of Enzyme and Transporter Activities” (Pharmaceutics, 2022).)
